In PMC6695839, “Interspecies Variation in NCMN-O-Demethylation in Liver Microsomes from Various Species” (Molecules, 2019):
“And” between values parts separate entries of the source, which are not always exact repeats. Equal entries are not always repeated.

Tests used:
Type in all cases: in vitro ADME
[1] = system: mouse liver microsomes (MLM); assay: Kinetic analysis of NCMN-O-demethylation in mouse liver microsomes; conditions: Michaelis-Menten, substrate 1-150 µM
Experimental: (§1) The formation rates of NCHN were within the linear range of the protein concentration and incubation time. NCMN (1, 2.5, 5, 7.5, 10, 25, 50, 75, 100 and 150 µM) was incubated with HLM, MLM, RLM, DLM, PLM, CyLM (0.25mg protein/mL) as well as rat CYP1A2 (100 nM) for 30min. The apparent Km and Vmax values were determined by fitting the substrate concentrations versus the metabolite reaction velocities to the Michaelis-Menten equation (Equation (1)) and the Biphasic Kinetics equation (Equation (2)), and the results were graphically represented by Eadie-Hofstee plots. (1) v=Vmax[S]/Km+[S] (2) v=Vmax 1[S]/Kmax 1+[S]+Vmax 2[S]/Kmax 2+[S] where v is the rate of the reaction, Vmax is the maximum velocity estimate, Km is the substrate affinity constant, [S] is the substrate concentration.
(§2) The UFLC system consisted of a SIL-20ACHT auto sampler, a DGU-20A3 in-line degasser, a CBM-20A communications bus module, a CTO-20AC column oven, two LC-20AD pumps and an SPD-M20A photodiode array detector were used for analyzing the samples. The separation of NCMN and its metabolites was achieved on a Shim-pack XR-ODS (75 mm × 2.0 mm, 2.2 µm, Shimadzu, Kyoto, Japan) analytical column with an ODS guard column (5 mm × 2.0 mm, 2.2 µm, Shimadzu, Kyoto, Japan). The O-demethylation was quantified at the detector wavelength of 243 nm. […] The column oven was kept at 40 °C.

[2] = as above; conditions: mouse, mouse liver microsomes, pH 7.4; MLM; Michaelis-Menten; substrate 1-150 µM; read-out: Km1 (Km) of NCMN-O-demethylation
Experimental: as §1, §2

[3] = system: human liver microsomes (HLM); assay: Kinetic analysis of NCMN-O-demethylation in human liver microsomes; conditions: Michaelis-Menten, substrate 1-150 µM
Experimental: as §1, §2

[4] = as above; conditions: human, human liver microsomes, pH 7.4; HLM; Michaelis-Menten; substrate 1-150 µM; read-out: Km1 (Km) of NCMN-O-demethylation
Experimental: as §1, §2

[5] = system: rat liver microsomes (RLM); assay: Kinetic analysis of NCMN-O-demethylation in rat liver microsomes; conditions: biphasic kinetics, substrate 1-150 µM
Experimental: as §1, §2

[6] = system: beagle dog liver microsomes (DLM); assay: Kinetic analysis of NCMN-O-demethylation in beagle dog liver microsomes; conditions: Michaelis-Menten, substrate 1-150 µM
Experimental: as §1, §2

[7] = as above; conditions: beagle, dog, beagle dog liver microsomes, pH 7.4; DLM; Michaelis-Menten; substrate 1-150 µM; read-out: Km1 (Km) of NCMN-O-demethylation
Experimental: as §1, §2

[8] = system: minipig liver microsomes (PLM); assay: Kinetic analysis of NCMN-O-demethylation in minipig liver microsomes; conditions: biphasic kinetics, substrate 1-150 µM
Experimental: as §1, §2

[9] = system: cynomolgus monkey liver microsomes (CyLM); assay: Kinetic analysis of NCMN-O-demethylation in cynomolgus monkey liver microsomes; conditions: biphasic kinetics, substrate 1-150 µM
Experimental: as §1, §2

Km at 30 min [2]: 22.8 ± 1.22 µM | Km at 30 min [4]: 9.54 ± 0.24 µM | Km at 30 min [7]: 61.8 ± 3.52 µM
SMILES: COc1ccc2c3c(cccc13)C(=O)N(CCCC(=O)O)C2=O [NCMN, N-(3-carboxypropyl)-4-methoxy-1,8-naphthalimide]
Vm1 (Vmax) of NCMN-O-demethylation [1]: 33.17 ± 0.42 nmol/min/mg | Vm1 (Vmax) of NCMN-O-demethylation [3]: 25.61 ± 0.15 nmol/min/mg | Km1 of NCMN-O-demethylation [5]: 1134.00 µM and 1134.00 ± 482.10 µM | Km2 of NCMN-O-demethylation [5]: 5.66 ± 0.80 µM | Vm1 of NCMN-O-demethylation [5]: 78.42 ± 31.17 nmol/min/mg | Vm2 of NCMN-O-demethylation [5]: 5.71 ± 0.45 nmol/min/mg | Vm1 (Vmax) of NCMN-O-demethylation [6]: 13.53 ± 0.34 nmol/min/mg | Km1 of NCMN-O-demethylation [8]: 242.80 ± 111.80 µM | Km2 of NCMN-O-demethylation [8]: 5.70 ± 3.27 µM | Vm1 of NCMN-O-demethylation [8]: 28.22 ± 5.82 nmol/min/mg | Vm2 of NCMN-O-demethylation [8]: 3.35 ± 1.20 nmol/min/mg | Km1 of NCMN-O-demethylation [9]: 198.70 ± 39.66 µM | Km2 of NCMN-O-demethylation [9]: 0.18 ± 0.09 µM | Vm1 of NCMN-O-demethylation [9]: 8.43 ± 0.91 nmol/min/mg | Vm2 of NCMN-O-demethylation [9]: 0.28 ± 0.08 nmol/min/mg
